In article PMC7705649 (Scientific Reports, 2020):
“And” between values parts separate entries of the source, which are not always exact repeats. Equal values may be shown once. Read-outs that look alike come from different tables or passages of the source.

Columns and labels:
[1] = target: T1, human serum albumin (Homo sapiens, UniProt P02768); settings: binding percentage to human serum albumin, biomimetic column, ± RSD (%)
[2] = RP-HPLC hydrophobicity determination (C18 column); format: physicochemical; settings: Symmetry C18, phosphate-buffered saline/methanol, y-intercept of log k vs methanol fraction, 25 °C; ± 95% confidence interval
Method: All HPLC measurements were carried out on an Agilent 1100 series HPLC system (Agilent Technologies, Waldbronn, Germany) coupled with a diode array detector (DAD). System control, data collection and data processing were accomplished using ChemStation for LC 3D software by Agilent Technologies. RP-HPLC hydrophobicity determination was carried on Symmetry C18 reversed-phase column (150 × 4.6 mm, 3.5 µm particle size) obtained by Waters (Milford, MA, USA), with phosphate-buffered saline and methanol as mobile phase. The flow rate was set at 1.0 mL/min with the injection volume of 10.0 µL whilst the column temperature was maintained at 25.0 ± 0.1 °C. To obtain hydrophobicity, the log k values were calculated using retention times of investigated compounds (tR) and retention time of sodium nitrate as unretained compound (t0). […] At least five different concentrations of methanol in the mobile phase were applied for each standard substance and all measurements at each methanol fraction were performed in triplicates. […] Column equilibration time of 20 min was necessary after every change of mobile phase. Finally, log kw C18 value, describing hydrophobicity, was obtained by calculating the y-intercept of the regression line in a plot of log k vs. methanol fraction in the mobile phase.

[3] = Affinity for immobilized phospholipids (IAM chromatography); format: physicochemical; settings: IAM.PC.DD2 column, phosphate-buffered saline/methanol, y-intercept of log k vs methanol fraction; ± 95% confidence interval
Text: The same HPLC conditions, mobile phases and calculation approaches were used for evaluation of IAM affinity, as in determining hydrophobicity with the RP-HPLC column.

[4] = system: α1-acid-glycoprotein; experiment: Plasma protein binding on biomimetic AGP column; format: in vitro ADME; settings: for PPBAGP (%): binding percentage to α1-acid-glycoprotein, biomimetic column, ± RSD (%)
[5] = target: T1, human serum albumin; experiment: Frontal analysis of FA on HSA column (HPAC); format: binding
Method: Frontal and zonal elution studies were carried out on HSA (Chiralpak-HSA, 50 × 4.6 mm, 5 μm particle size) biomimetic column obtained by ChromTech (Cedex, France). […] Injection volume was set at 10.0 µL and the measurements were carried out at 25.0 ± 0.1 °C.

T1 sequence (P02768 25-609): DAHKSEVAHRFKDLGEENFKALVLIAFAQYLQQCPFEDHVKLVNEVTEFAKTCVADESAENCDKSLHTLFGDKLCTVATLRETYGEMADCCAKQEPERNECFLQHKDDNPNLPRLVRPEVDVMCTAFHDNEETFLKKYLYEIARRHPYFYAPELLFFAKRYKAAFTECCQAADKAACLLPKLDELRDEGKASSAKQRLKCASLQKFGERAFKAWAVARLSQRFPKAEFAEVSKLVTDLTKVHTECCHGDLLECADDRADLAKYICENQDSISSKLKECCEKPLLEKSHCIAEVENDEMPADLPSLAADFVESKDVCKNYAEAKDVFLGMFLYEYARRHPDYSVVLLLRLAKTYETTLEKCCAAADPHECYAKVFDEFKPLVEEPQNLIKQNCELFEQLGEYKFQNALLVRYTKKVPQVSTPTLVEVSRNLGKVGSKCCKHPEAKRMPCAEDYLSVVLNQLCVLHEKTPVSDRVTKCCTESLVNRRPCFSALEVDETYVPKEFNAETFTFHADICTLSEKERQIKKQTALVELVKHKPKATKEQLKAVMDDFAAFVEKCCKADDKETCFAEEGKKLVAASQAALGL

Compound | PPBHSA (%) [1] [%] | log kw C18 [2] | log kw IAM [3] | PPBAGP (%) [4] [%] | affinity for AGP lower than for HSA ([4]; difference PPBHSA minus PPBAGP) [%] | PPBHSA (%) ([1]; listed as folic acid) | moles of binding sites (mL) ([5]; frontal analysis, HSA column, brackets = 95% confidence interval) | type of binding site on HSA ([5]; linear double-reciprocal plot, 1-20 µM FA)
Nc1ccc(O)c(C(=O)O)c1 [MSZ, mesalazine] | 61.44 ± 0.51 | 0.37 and 0.37 ± 0.19 | 0.17 and 0.17 ± 0.02 | – | – | – | – | –
O=C(O)c1cc(/N=N/c2ccc(S(=O)(=O)Nc3ccccn3)cc2)ccc1O [SASP, sulfasalazine] | – | 3.71 ± 0.24 | 2.77 ± 0.23 | – | – | – | – | –
Nc1nc2ncc(CNc3ccc(C(=O)N[C@@H](CCC(=O)O)C(=O)O)cc3)nc2c(=O)[nH]1 [FA, folic acid] | 69.40 ± 0.53 | 0.99 and 0.99 ± 0.31 | – | 3.45 | – | 69.40 | 2.34 (± 1.16) × 10^–7 mol | single type of binding site

Continued, values first:

PPBHSA (%) [1] [%] | log kw C18 [2] | log kw IAM [3] | PPBAGP (%) [4] [%] | affinity for AGP lower than for HSA ([4]; difference PPBHSA minus PPBAGP) [%] | PPBHSA (%) ([1]; listed as folic acid) | moles of binding sites (mL) ([5]; frontal analysis, HSA column, brackets = 95% confidence interval) | type of binding site on HSA ([5]; linear double-reciprocal plot, 1-20 µM FA) | Compound
91.64 ± 0.04 | 3.01 ± 0.09 | 1.20 ± 0.11 | 77.60 ± 0.58 | 14 | – | – | – | O=C(O)CCNC(=O)c1ccc(/N=N/c2ccc(O)c(C(=O)O)c2)cc1 [BSZ, balsalazide]
96.00 ± 0.03 | 3.25 ± 0.09 | 1.69 ± 0.17 | – | – | – | – | – | O=C(O)c1cc(/N=N/c2ccc(O)c(C(=O)O)c2)ccc1O [OSZ, olsalazine]
